Experimental data: patent publication US8129398B2 (priority 2008, dated 2012)
pIC50: −log10 of the molar value.

target: T1, HIV-integrase (Human immunodeficiency virus type 1 group M subtype B, UniProt P12497); test: HIV-Integrase Inhibition Activity (SPA bead integration assay with P33 labeled target DNA); type: biochemical; conditions: recombinant integrase, class symbols; read-out: in vitro activity
T1 construct: Recombinant integrase (0.26 ng) was incubated with the beads
Method: HIV-Integrase Inhibition Activity. To evaluate in-vitro activity against HIV-integrase, 5 pmole of biotin labeled substrate DNA was bound to 100 μg of Streptavidin coated PVT SPA beads (Amersham Pharmacia Biotech). Recombinant integrase (0.26 ng) was incubated with the beads for 90 min at 37° C. Unbound enzyme was removed by washing the complex followed by addition of inhibitors and 0.1 fmol of P33 labeled target DNA. The reaction was stopped by adding EDTA to a final concentration of 10 mM. Samples were counted in TopCountNXT (Packard) and the CPM was used as a measure of integration. The reaction condition was as described in A. Engelman and R. Craigie, J. Virol. 69, 5908-5911 (1995). The sequences of substrate and target DNA were described in Nucleic Acid Research 22, 1121-1122 (1994). Activity equal to A refers to a compound having IC50=<10 nM while B and C denote compounds having […] and IC50>100 nM respectively.

`CN(C12CCC(CC1)Cn1c2nc(C(=O)NCc2ccc(F)cc2)c(O)c1=O)S(C)(=O)=O` [Example 155, N-(4-Fluorobenzyl)-3-hydroxy-10-(methyl(methylsulfonyl)amino)-4-oxo-4,6,7,8,9,10-hexahydro-7,10-ethanopyrimido[1,2-a]azepine-2-carboxamide] and `CNC(=O)C(=O)NC12CCC(CC1)Cn1c2nc(C(=O)NCc2ccc(F)cc2)c(O)c1=O` [Example 61, N-(2-((4-Fluorobenzyl)carbamoyl)-3-hydroxy-4-oxo-6,7,8,9-tetrahydro-7,10-ethanopyrimido[1,2-a]azepin-10(4H)-yl)-N′-methylethanediamide] cannot be ordered by pIC50: greater than 8.00 for the first, greater than 8.00 for the second.

`CO[C@H]1C[C@@H](C(=O)NC23CCC(CC2)Cn2c3nc(C(=O)NCc3ccc(F)cc3)c(O)c2=O)N(S(C)(=O)=O)C1` [Example 272, 7,10-Ethanopyrimido[1,2-a]azepine-2-carboxamide, N-[(4-fluorophenyl)methyl]-4,6,7,8,9,10-hexahydro-3-hydroxy-10-[[[(2S,4S)-4-methoxy-1-(methylsulfonyl)-2-pyrrolidinyl]carbonyl]amino]-4-oxo-] and `CO[C@@H]1C[C@@H](C(=O)NC23CCC(CC2)Cn2c3nc(C(=O)NCc3ccc(F)cc3)c(O)c2=O)N(C(C)=O)C1` [Example 273, 7,10-Ethanopyrimido[1,2-a]azepine-2-carboxamide, 10-[[[(2S,4R)-1-acetyl-4-methoxy-2-pyrrolidinyl]carbonyl]amino]-N-[(4-fluorophenyl)methyl]-4,6,7,8,9,10-hexahydro-3-hydroxy-4-oxo-] cannot be ordered by pIC50: greater than 8.00 for the first, greater than 8.00 for the second.

`Cc1nn(C)cc1CN(C)C(=O)C(=O)NC12CCC(CC1)Cn1c2nc(C(=O)NCc2ccc(F)cc2)c(O)c1=O` [Example 96, N-((1,3-Dimethyl-1H-pyrazol-4-yl)methyl)-N′-(2-((4-fluorobenzyl)carbamoyl)-3-hydroxy-4-oxo-6,7,8,9-tetrahydro-7,10-ethanopyrimido[1,2-a]azepin-10(4H)-yl)-N-methylethanediamide] and `CN(C)C(=O)C(=O)NC12CCC(CC1)Cn1c2nc(C(=O)NCCCc2ccc(F)cc2)c(O)c1=O` [Example 130, N′-(2-((3-(4-Fluorophenyl)propyl)carbamoyl)-3-hydroxy-4-oxo-6,7,8,9-tetrahydro-7,10-ethanopyrimido[1,2-a]azepin-10(4H)-yl)-N,N-dimethylethanediamide] cannot be ordered by pIC50: greater than 8.00 for the first, greater than 8.00 for the second.

First: CN(C)C(=O)C(=O)NC12CCC(CC1)Cn1c2nc(C(=O)NCCc2ccc(S(N)(=O)=O)cc2)c(O)c1=O [Example 351]
Second: CN(C)C(=O)C(=O)NC12CCC(CC1)Cn1c2nc(C(=O)NCCc2ccc(Cl)cc2)c(O)c1=O [Example 345]
The pIC50 of the first is lower: less than 7.00 for the first, 7.00 to 8.00 for the second.

`Cn1ccnc1CN1CCN(C(=O)C(=O)NC23CCC(CC2)Cn2c3nc(C(=O)NCc3ccc(F)cc3)c(O)c2=O)CC1` [Example 137, N-(4-Fluorobenzyl)-3-hydroxy-10-(((4-((1-methyl-1H-imidazol-2-yl)methyl)-1-piperazinyl)(oxo)acetyl)amino)-4-oxo-4,6,7,8,9,10-hexahydro-7,10-ethanopyrimido[1,2-a]azepine-2-carboxamide] and `O=C(NC12CCC(CC1)Cn1c2nc(C(=O)NCc2ccc(F)cc2)c(O)c1=O)C(=O)N1CCNCC1` [Example 62, N-(4-Fluorobenzyl)-3-hydroxy-4-oxo-10-((oxo(1-piperazinyl)acetyl)amino)-4,6,7,8,9,10-hexahydro-7,10-ethanopyrimido[1,2-a]azepine-2-carboxamide] cannot be ordered by pIC50: greater than 8.00 for the first, greater than 8.00 for the second.

First: CN1CCC[C@H]1C(=O)NC12CCC(CC1)Cn1c2nc(C(=O)NCc2ccc(F)cc2)c(O)c1=O [Example 258, 7,10-Ethanopyrimido[1,2-a]azepine-2-carboxamide, N-[(4-fluorophenyl)methyl]-4,6,7,8,9,10-hexahydro-3-hydroxy-10-[[[(2S)-1-methyl-2-pyrrolidinyl]carbonyl]amino]-4-oxo-]
Second: CS(=O)(=O)N1CCCC1C(=O)NC12CCC(CC1)Cn1c2nc(C(=O)NCc2ccc(F)cc2)c(O)c1=O (stereo in doubt) [Example 254, 7,10-Ethanopyrimido[1,2-a]azepine-2-carboxamide, N-[(4-fluorophenyl)methyl]-4,6,7,8,9,10-hexahydro-3-hydroxy-10-[[[(2R)-1-(methylsulfonyl)-2-pyrrolidinyl]carbonyl]amino]-4-oxo-]
The pIC50 of the first is lower: 7.00 to 8.00 for the first, greater than 8.00 for the second.

`Cc1cc(C(=O)N2CCN(C(=O)C(=O)NC34CCC(CC3)Cn3c4nc(C(=O)NCc4ccc(F)cc4)c(O)c3=O)CC2)no1` [Example 139, N-(4-Fluorobenzyl)-3-hydroxy-10-(((4-((5-methyl-3-isoxazolyl)carbonyl)-1-piperazinyl)(oxo)acetyl)amino)-4-oxo-4,6,7,8,9,10-hexahydro-7,10-ethanopyrimido[1,2-a]azepine-2-carboxamide] and `CN(C)C(=O)[C@@H]1CCCN1C(=O)C(=O)NC12CCC(CC1)Cn1c2nc(C(=O)NCc2ccc(F)cc2)c(O)c1=O` [Example 91, 10-((((2S)-2-(Dimethylcarbamoyl)-1-pyrrolidinyl) (oxo)acetyl)amino)-N-(4-fluorobenzyl)-3-hydroxy-4-oxo-4,6,7,8,9,10-hexahydro-7,11-ethanopyrimido[1,2-a]azepine-2-carboxamide] cannot be ordered by pIC50: greater than 8.00 for the first, greater than 8.00 for the second.

`O=C(Nc1ccccn1)NC12CCC(CC1)Cn1c2nc(C(=O)NCc2ccc(F)cc2)c(O)c1=O` [Example 324, 7,10-Ethanopyrimido[1,2-a]azepine-2-carboxamide, N-[(4-fluorophenyl)methyl]-4,6,7,8,9,10-hexahydro-3-hydroxy-4-oxo-10-[[(2-pyridinylamino)carbonyl]amino]-] and `CC(=O)Nc1cc(C(=O)NC23CCC(CC2)Cn2c3nc(C(=O)NCc3ccc(F)cc3)c(O)c2=O)ccn1` [Example 318, 7,10-Ethanopyrimido[1,2-a]azepine-2-carboxamide, 10-[[[2-(acetylamino)-4-pyridinyl]carbonyl]amino]-N-[(4-fluorophenyl)methyl]-4,6,7,8,9,10-hexahydro-3-hydroxy-4-oxo-] cannot be ordered by pIC50: greater than 8.00 for the first, greater than 8.00 for the second.

Compared with `CN(C)C(=O)C(=O)NC12CCC(CC1)Cn1c2nc(C(=O)NCc2ccc(Cl)cc2)c(O)c1=O` [Example 374], `CN(C)C(=O)C(=O)NC12CCC(CC1)Cn1c2nc(C(=O)NCc2ccncc2)c(O)c1=O` [Example 365] is lower in pIC50: greater than 8.00 for the first, less than 7.00 for the second. The first is the more potent here.

Compared with `CN(C)C(=O)C(=O)NC12CCC(CC1)Cn1c2nc(C(=O)NCc2ncc(F)cc2F)c(O)c1=O` [Example 123, N′-(2-(((3,5-Difluoro-2-pyridinyl)methyl)carbamoyl)-3-hydroxy-4-oxo-6,7,8,9-tetrahydro-7,10-ethanopyrimido[1,2-a]azepin-10(4H)-yl)-N,N-dimethylethanediamide], `COc1cc(F)ccc1CNC(=O)c1nc2n(c(=O)c1O)CC1CCC2(NC(=O)C(=O)N(C)C)CC1` [Example 116, N′-(2-((4-Fluoro-2-methoxybenzyl)carbamoyl)-3-hydroxy-4-oxo-6,7,8,9-tetrahydro-7,10-ethanopyrimido[1,2-a]azepin-10(4H)-yl)-N,N-dimethylethanediamide] is higher in pIC50: 7.00 to 8.00 for the first, greater than 8.00 for the second.

First: O=C(NC(=S)NC12CCC(CC1)Cn1c2nc(C(=O)NCc2ccc(F)cc2)c(O)c1=O)c1ccccc1 [Example 332, 7,10-Ethanopyrimido[1,2-a]azepine-2-carboxamide, 10-[[(benzoylamino)thioxomethyl]amino]-N-[(4-fluorophenyl)methyl]-4,6,7,8,9,10-hexahydro-3-hydroxy-4-oxo-]
Second: O=C(NC12CCC(CC1)Cn1c2nc(C(=O)NCc2ccc(F)cc2)c(O)c1=O)c1cnc2ccccc2c1 [Example 315, 7,10-Ethanopyrimido[1,2-a]azepine-2-carboxamide, N-[(4-fluorophenyl)methyl]-4,6,7,8,9,10-hexahydro-3-hydroxy-4-oxo-10-[(3-quinolinylcarbonyl)amino]-]
The pIC50 of the first is lower: 7.00 to 8.00 for the first, greater than 8.00 for the second. The second is the more potent here.

`COCCOC(=O)NC12CCC(CC1)Cn1c2nc(C(=O)NCc2ccc(F)cc2)c(O)c1=O` [Example 259, Carbamic acid, [2-[[[(4-fluorophenyl)methyl]amino-0]carbonyl]-6,7,8,9-tetrahydro-3-hydroxy-4-oxo-7,10-ethanopyrimido[1,2-a]azepin-10(4H)-yl]-, 2-methoxyethyl ester] and `CC(=O)Nc1cncc(C(=O)NC23CCC(CC2)Cn2c3nc(C(=O)NCc3ccc(F)cc3)c(O)c2=O)c1` [Example 321, 7,10-Ethanopyrimido[1,2-a]azepine-2-carboxamide, 10-[[[5-(acetylamino)-3-pyridinyl]carbonyl]amino]-N-[(4-fluorophenyl)methyl]-4,6,7,8,9,10-hexahydro-3-hydroxy-4-oxo-] cannot be ordered by pIC50: greater than 8.00 for the first, greater than 8.00 for the second.

Compared with `CC(C)CNC(=O)c1nc2n(c(=O)c1O)CC1CCC2(NC(=O)C(=O)N(C)C)CC1` [Example 341], `CS(=O)(=O)N1CCCC[C@H]1C(=O)NC12CCC(CC1)Cn1c2nc(C(=O)NCc2ccc(F)cc2)c(O)c1=O` [Example 266, 7,10-Ethanopyrimido[1,2-a]azepine-2-carboxamide, N-[(4-fluorophenyl)methyl]-4,6,7,8,9,10-hexahydro-3-hydroxy-10-[[[(2S)-1-(methylsulfonyl)-2-piperidinyl]carbonyl]amino]-4-oxo-] is higher in pIC50: less than 7.00 for the first, greater than 8.00 for the second. The second is the more potent here.

With `Cc1cc(CNC(=O)c2nc3n(c(=O)c2O)CCC2CCC3(NC(=O)C(=O)N3CC[C@@H](F)C3)C2)ccc1F` (stereo partly drawn) [Example 216, 8,11-Methano-4H-pyrimido[1,2-a]azocine-2-carboxamide, N-[(4-fluoro-3-methylphenyl)methyl]-11-[[2-[(3R)-3-fluoro-1-pyrrolidinyl]-1,2-dioxoethyl]amino]-6,7,8,9,10,11-hexahydro-3-hydroxy-4-oxo-] the pIC50 was greater than 8.00.
